Active and inactive are the calls of the source.
Assays:
Caspase-3 = molecular target: T1, Caspase-3 (Homo sapiens, UniProt P42574); experiment: caspase-3 inhibitors as off-family protease, SAR follow-up, selectivity assay for SENP protease inhibitor project, biochemical, luminescence, set 2 (AID 588599); assay type: functional
T1 sequence (P42574 whole entry): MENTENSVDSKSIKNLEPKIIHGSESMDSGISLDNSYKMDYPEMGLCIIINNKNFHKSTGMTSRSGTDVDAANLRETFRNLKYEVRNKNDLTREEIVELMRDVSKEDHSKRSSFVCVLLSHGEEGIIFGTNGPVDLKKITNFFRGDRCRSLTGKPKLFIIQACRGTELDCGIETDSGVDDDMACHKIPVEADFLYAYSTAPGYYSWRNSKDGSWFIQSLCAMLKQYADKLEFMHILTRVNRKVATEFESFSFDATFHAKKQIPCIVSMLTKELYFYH

[1] = molecular target: T2, Sentrin-specific protease 8 (Homo sapiens, UniProt Q96LD8); experiment: SENP8 protease inhibitors, SAR follow-up, biochemical, luminescence, set 2 (AID 588601); assay type: functional
T2 sequence (Q96LD8 whole entry): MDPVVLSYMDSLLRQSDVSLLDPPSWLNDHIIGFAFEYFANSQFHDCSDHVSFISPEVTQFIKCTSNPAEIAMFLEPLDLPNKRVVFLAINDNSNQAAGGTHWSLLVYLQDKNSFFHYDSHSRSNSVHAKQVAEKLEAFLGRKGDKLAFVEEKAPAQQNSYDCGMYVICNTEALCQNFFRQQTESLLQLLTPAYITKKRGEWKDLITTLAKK

[2] = molecular target: T3, Sentrin-specific protease 7 (Homo sapiens, UniProt Q9BQF6); experiment: SENP7 protease inhibitors, SAR follow-up, biochemical, luminescence, set 2 (AID 588600); assay type: functional
T3 sequence (Q9BQF6 whole entry): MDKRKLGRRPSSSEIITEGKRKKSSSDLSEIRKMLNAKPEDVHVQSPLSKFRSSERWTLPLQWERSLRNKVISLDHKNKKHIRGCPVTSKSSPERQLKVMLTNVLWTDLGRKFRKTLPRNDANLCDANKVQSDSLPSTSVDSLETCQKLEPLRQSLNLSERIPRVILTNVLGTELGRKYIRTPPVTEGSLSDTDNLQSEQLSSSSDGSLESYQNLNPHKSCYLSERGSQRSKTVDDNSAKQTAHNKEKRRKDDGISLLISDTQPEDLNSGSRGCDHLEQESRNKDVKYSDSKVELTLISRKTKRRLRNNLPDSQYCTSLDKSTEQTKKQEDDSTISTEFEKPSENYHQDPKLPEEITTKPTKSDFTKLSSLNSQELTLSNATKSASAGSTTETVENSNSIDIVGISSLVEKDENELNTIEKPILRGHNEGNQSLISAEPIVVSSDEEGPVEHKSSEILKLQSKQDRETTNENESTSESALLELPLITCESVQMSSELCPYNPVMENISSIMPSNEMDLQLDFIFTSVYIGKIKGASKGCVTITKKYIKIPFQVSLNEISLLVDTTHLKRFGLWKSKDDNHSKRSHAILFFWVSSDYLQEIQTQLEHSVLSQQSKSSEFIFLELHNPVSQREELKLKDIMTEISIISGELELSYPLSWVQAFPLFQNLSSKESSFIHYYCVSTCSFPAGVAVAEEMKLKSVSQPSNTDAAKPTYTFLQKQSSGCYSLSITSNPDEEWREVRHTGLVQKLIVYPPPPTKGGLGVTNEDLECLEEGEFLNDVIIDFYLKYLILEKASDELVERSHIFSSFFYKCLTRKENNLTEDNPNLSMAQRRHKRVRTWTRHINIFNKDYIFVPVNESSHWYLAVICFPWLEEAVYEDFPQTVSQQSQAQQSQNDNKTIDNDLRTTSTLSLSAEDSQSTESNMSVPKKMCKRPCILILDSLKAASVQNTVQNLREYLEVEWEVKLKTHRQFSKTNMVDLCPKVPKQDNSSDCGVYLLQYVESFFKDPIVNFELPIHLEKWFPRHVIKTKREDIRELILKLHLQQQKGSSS

[3] = molecular target: T4, Sentrin-specific protease 6 (Homo sapiens, UniProt Q9GZR1); experiment: SENP6 protease inhibitors, SAR follow-up, biochemical, luminescence, set 2 (AID 588598); assay type: functional
T4 sequence (Q9GZR1 whole entry): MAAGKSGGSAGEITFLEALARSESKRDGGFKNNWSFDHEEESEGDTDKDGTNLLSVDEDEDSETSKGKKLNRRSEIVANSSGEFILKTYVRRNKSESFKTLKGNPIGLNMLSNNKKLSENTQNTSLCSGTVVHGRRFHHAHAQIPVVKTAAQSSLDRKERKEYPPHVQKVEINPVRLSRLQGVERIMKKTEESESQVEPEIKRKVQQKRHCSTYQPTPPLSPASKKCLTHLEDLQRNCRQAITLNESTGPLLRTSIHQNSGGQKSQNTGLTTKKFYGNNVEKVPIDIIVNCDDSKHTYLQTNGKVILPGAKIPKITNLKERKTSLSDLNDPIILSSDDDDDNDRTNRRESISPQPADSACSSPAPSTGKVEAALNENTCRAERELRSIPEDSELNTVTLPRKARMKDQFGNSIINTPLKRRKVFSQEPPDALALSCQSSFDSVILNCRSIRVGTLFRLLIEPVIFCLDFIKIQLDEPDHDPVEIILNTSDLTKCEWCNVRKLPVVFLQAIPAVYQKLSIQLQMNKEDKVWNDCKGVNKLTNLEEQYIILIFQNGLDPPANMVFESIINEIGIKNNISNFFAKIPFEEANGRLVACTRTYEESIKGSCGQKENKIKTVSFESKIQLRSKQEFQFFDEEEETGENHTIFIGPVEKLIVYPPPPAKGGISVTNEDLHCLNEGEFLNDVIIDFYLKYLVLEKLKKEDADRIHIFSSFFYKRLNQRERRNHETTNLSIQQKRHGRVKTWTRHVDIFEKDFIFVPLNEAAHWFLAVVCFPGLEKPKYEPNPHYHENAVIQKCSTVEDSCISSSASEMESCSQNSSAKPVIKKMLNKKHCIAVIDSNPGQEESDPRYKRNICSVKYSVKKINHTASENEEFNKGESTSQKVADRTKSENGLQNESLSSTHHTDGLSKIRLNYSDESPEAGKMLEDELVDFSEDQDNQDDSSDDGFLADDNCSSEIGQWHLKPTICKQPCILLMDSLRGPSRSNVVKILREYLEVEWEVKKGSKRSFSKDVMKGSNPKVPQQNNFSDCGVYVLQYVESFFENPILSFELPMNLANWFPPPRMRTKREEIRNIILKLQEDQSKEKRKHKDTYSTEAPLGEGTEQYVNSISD

[4] = molecular target: T5, Ubiquitin-conjugating enzyme E2 N (Homo sapiens, UniProt P61088); assay type: functional;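 also: Dose-response confirmation in a TR-FRET assay detecting UBC13-driven polyubiquitin chain formation, inhibition measured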
T5 sequence (P61088 whole entry): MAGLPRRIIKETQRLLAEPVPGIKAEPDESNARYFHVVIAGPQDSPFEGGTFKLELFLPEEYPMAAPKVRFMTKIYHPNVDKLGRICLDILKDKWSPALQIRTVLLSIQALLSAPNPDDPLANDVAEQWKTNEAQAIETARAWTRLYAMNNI

[5] = molecular target: T6, High affinity choline transporter 1 (Homo sapiens, UniProt Q9GZV3); experiment: CHT activators, dose response, cell-based, 10-point CRC, membrane potential dye (AID 602376); assay type: functional
T6 sequence (Q9GZV3 whole entry): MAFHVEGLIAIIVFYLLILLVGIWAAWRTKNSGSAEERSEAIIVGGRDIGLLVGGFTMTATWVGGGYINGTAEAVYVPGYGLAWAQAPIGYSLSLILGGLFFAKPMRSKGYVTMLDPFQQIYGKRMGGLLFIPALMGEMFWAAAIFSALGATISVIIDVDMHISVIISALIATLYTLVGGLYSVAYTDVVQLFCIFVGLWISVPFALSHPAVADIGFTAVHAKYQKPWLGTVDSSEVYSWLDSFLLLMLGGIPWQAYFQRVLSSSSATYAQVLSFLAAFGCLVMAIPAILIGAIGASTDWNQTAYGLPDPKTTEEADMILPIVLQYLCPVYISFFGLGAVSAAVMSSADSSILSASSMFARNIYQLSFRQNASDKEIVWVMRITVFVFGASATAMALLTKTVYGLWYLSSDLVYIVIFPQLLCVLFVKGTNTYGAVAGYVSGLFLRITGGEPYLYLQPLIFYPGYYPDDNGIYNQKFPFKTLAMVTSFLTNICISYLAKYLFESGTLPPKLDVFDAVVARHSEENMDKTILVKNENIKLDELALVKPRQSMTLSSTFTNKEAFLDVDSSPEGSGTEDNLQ

[6] = molecular target: 26S proteasome non-ATPase regulatory subunit 14 (Homo sapiens, UniProt O00487); experiment: inhibition of proteasome subunit RPN11 – biochemical, fluorescence polarization, uHTS hits, confirmation (AID 602368); assay type: functional
26S proteasome non-ATPase regulatory subunit 14, sequence (O00487 whole entry): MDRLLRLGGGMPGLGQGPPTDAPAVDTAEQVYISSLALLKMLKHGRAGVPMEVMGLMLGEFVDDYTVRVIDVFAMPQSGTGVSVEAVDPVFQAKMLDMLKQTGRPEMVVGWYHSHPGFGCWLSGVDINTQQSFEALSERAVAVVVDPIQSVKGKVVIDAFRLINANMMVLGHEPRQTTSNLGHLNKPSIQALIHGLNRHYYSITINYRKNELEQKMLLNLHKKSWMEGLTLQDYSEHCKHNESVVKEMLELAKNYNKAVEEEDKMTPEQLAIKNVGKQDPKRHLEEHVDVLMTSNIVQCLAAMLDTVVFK

[7] = molecular target: 72 kDa type IV collagenase (Homo sapiens, UniProt P08253); experiment: Dose Response validation of uHTS RPN11 inhibitor hits using a MMP-2 Fluorescence assay.; assay type: functional
72 kDa type IV collagenase, sequence (P08253 whole entry): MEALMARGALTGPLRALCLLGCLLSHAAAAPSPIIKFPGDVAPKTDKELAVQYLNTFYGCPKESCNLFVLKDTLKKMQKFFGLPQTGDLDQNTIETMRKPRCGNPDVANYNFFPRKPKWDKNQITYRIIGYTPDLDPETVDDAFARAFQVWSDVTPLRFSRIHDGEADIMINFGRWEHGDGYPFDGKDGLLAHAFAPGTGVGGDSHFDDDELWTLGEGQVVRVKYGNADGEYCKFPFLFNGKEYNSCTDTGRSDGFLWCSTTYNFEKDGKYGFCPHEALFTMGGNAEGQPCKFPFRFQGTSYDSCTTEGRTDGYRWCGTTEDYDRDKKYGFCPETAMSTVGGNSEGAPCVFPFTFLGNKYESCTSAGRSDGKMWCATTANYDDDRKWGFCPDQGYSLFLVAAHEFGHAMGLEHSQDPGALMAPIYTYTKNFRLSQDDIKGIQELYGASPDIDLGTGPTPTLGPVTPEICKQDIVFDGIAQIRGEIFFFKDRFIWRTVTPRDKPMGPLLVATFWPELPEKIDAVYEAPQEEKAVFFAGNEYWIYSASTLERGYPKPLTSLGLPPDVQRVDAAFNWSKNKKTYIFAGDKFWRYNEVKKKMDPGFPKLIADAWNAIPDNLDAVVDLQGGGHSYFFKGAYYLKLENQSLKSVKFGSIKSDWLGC

Prothrombin = Prothrombin (Bos taurus, UniProt P00735); experiment: thrombin inhibition, dose response, biochemical, fluorescence polarization, uHTS hits (AID 602369); assay type: functional
[8] = molecular target: Multidrug resistance protein CDR1 (Candida albicans, UniProt P43071); experiment: CaCDR1 efflux pump inhibitors in yeast, dose response, S. cerevisiae AD1-8u, singleplex, Cherry Pick1 hits (AID 588606); assay type: functional
Multidrug resistance protein CDR1, sequence (P43071 whole entry, looked up): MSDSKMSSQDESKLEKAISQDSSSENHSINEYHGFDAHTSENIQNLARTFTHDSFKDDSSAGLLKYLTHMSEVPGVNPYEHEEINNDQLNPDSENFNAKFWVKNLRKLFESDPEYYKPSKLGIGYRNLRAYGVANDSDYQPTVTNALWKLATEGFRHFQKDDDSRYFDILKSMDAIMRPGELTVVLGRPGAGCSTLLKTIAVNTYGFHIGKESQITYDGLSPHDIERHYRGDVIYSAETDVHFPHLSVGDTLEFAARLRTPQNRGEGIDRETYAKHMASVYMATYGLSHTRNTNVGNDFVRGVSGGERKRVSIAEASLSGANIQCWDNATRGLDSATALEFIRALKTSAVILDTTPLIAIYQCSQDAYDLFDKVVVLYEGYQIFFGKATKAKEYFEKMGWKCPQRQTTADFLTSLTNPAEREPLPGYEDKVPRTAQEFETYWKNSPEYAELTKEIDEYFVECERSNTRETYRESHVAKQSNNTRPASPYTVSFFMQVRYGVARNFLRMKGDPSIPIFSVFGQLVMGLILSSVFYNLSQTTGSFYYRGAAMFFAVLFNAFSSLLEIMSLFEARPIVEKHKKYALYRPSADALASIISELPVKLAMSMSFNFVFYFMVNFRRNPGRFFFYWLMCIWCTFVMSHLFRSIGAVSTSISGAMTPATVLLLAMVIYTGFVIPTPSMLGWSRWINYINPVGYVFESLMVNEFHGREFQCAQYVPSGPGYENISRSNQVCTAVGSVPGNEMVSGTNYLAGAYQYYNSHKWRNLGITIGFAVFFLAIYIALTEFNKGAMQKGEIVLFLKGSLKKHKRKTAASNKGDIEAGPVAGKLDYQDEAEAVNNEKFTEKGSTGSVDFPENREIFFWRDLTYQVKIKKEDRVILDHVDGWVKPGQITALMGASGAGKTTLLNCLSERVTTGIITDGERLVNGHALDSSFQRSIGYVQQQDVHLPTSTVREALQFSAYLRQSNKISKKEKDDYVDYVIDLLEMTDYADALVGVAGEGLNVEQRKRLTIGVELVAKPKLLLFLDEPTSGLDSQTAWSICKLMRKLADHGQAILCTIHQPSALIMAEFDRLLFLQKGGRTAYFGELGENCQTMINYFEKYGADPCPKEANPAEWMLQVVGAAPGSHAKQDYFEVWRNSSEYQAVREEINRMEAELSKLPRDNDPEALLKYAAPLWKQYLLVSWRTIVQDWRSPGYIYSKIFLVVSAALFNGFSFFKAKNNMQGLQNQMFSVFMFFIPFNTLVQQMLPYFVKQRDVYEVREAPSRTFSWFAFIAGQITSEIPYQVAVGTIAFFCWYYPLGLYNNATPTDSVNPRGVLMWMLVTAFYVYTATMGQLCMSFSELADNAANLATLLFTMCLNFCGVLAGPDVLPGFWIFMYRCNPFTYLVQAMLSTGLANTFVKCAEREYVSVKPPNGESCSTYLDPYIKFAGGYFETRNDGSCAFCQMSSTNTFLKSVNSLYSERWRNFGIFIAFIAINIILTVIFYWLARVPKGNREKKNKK

INS1 [9] = experiment: protection of INS-1E cells from cytokine death, dose response, ATP luminescence, dry powder (AID 488844); assay type: functional, cell-based; details: Rattus norvegicus
[10] = inhibitors of cytokine-induced nitrite release, dose response, cell-based, Griess absorbance, INS-1E, dry powder, set 3 (AID 488870); assay type: functional; details: Rattus norvegicus
INS1 [11] = experiment: inhibitors of cytokine-induced nitrite release, dose response, cell-based, Griess absorbance, INS-1E, dry powder, set 2 (AID 488868); assay type: functional; details: Rattus norvegicus
INS1 [12] = experiment: protection from cytokine-induced mitochondrial depolarization, dose response, cell-based, INS-1E, JC-1 fluorescence ratio, dry powder (AID 488931); assay type: functional; details: Rattus norvegicus
[13] = cytotoxicity in HPDE-C7 cells, cell-based, fluorescence, HTS (AID 430); assay type: functional; details: Homo sapiens
[14] = cytotoxicity in KRAS-transformed pancreatic duct cells, primary screen, cell-based, fluorescence, HTS (AID 431); assay type: functional; details: Homo sapiens;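 also: cell line used: HPDE-C7K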
[15] = molecular target: Heat shock protein HSP 90-alpha (Homo sapiens, UniProt P07900); assay type: functional, organism-based
HSP90 = HSP90 (Plasmodium falciparum 3D7, UniProt Q8IL32); assay type: functional, organism-based
HSP90, sequence (Q8IL32 whole entry): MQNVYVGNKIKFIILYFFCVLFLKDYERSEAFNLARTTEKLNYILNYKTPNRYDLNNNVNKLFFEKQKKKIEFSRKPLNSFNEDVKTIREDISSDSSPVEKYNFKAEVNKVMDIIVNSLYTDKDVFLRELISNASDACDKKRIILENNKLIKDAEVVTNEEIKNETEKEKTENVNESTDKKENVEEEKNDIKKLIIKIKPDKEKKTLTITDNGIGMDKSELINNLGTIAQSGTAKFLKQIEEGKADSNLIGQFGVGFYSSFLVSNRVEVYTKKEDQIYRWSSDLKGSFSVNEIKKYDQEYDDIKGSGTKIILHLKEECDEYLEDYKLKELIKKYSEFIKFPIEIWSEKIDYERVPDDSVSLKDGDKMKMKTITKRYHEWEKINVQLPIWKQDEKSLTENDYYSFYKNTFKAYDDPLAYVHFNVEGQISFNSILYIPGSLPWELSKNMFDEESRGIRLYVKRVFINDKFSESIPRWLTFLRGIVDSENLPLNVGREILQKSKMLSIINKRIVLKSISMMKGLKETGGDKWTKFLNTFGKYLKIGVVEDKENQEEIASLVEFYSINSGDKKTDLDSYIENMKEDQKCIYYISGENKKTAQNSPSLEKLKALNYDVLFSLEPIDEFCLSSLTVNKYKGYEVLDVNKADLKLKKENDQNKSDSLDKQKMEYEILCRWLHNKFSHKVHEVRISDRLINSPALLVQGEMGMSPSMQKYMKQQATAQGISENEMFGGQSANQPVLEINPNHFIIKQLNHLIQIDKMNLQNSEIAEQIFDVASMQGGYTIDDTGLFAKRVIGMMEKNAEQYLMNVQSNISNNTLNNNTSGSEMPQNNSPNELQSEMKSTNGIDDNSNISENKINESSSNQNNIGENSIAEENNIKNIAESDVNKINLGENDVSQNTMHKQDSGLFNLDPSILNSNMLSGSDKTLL

Paired box protein Pax-8 = Paired box protein Pax-8 (Homo sapiens, UniProt Q06710); experiment: inhibitors of PAX8-driven TPO luciferase reporter, dose response, RMG-I cells, cherry-pick (AID 687027); assay type: functional, cell-based;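 also: luciferase reporter driven by Pax8 target thyroperoxidase promoter measured by SteadyGlo luminescence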
Paired box protein Pax-8, sequence (Q06710 whole entry): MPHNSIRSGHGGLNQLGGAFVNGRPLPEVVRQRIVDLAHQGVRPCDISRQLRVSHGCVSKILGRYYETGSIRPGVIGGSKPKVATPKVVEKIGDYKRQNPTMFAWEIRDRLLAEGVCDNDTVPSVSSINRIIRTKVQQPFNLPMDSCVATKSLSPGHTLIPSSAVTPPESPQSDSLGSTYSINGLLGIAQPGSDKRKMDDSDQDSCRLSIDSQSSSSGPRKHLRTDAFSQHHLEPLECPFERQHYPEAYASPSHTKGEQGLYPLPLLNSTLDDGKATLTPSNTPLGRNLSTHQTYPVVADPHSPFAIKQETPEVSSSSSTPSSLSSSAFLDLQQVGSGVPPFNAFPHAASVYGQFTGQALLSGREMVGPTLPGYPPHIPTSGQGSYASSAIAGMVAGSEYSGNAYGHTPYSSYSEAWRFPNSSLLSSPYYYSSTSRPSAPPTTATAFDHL

[16] = HeLa 2N DNA content increase, dose response, cell-based, IC50 (AID 1117349); assay type: functional
[17] = Concentration-dependent survival of SW480 colon cancer line, luminescence detection with CellTiter-Glo, half-maximal inhibitory concentration (AID 1117338); assay type: functional
[18] = RKO cell viability reduction, dose response, CellTiter-Glo luminescence (AID 1117322); assay type: functional
[19] = cytotoxicity toward HCT116 cells – cell-based, CellTiter-Glo luminescence, IC50, dose response (AID 1117332); assay type: functional; details: HCT-116
[20] = SNU-C1 cell viability reduction, dose response, CellTiter-Glo luminescence (AID 1117323); assay type: functional, cell-based
[21] = cytotoxicity toward Colo320 cells – cell-based, CellTiter-Glo luminescence, IC50, dose response (AID 1117334); assay type: functional; details: COLO 320
[22] = HeLa 4N DNA content increase, dose response, cell-based, IC50 (AID 1117351); assay type: functional
[23] = cytotoxicity toward HT-29 cells – cell-based, CellTiter-Glo luminescence, IC50, dose response (AID 1117330); assay type: functional
[24] = CellTiter-Glo luminescent dose response of DLD-1 viability loss (AID 1117352); assay type: functional

Cc1[nH]c2ccccc2c1C(=O)C(=O)N1CCC2(CC1)OCCO2
inactive: IC50 (Caspase-3) > 99 µM | IC50 [1] > 99 µM | IC50 [2] > 99 µM | IC50 [3] > 99 µM

O=C(CCC1CCCCC1)NCCN1C2=NC[C@H](Cc3ccccc3)N2C[C@H]1Cc1ccc(O)cc1
active: EC50 [5] 13.4 µM
inactive: IC50 [4] > 20 µM

CCc1c(O)n(C2CCCCC2)c(SCC(=O)Nc2ccc(C)cc2)nc1=O
active: IC50 [6] 38.3 µM | IC50 [7] 20.6 µM | IC50 (Prothrombin) 45.4 µM

Cc1ccc(OCc2cc(C(=O)NCC(C)(C)N3CCOCC3)no2)cc1C
active: EC50 [8] 0.001 µM

C[C@@H]1CN([C@@H](C)CO)C(=O)c2cccc(NC(=O)Nc3cccc(Cl)c3Cl)c2O[C@H]1CN(C)S(=O)(=O)c1ccc2c(c1)OCCO2
active: AC50 (INS1 [9]) 15.2 µM | AC50 [10] 68.8 µM | AC50 (INS1 [11]) 29.3 µM | AC50 (INS1 [12]) 71.3 µM

Oc1c(I)cc(I)c2cccnc12 [IODOQUINOL]
active: EC50 [13] 17.1 µM | EC50 [14] 7.36 µM | AC50 [15] 0.391 µM | AC50 (HSP90) 0.314 µM | AC50 (Paired box protein Pax-8) 4.87 µM | IC50 [17] 0.0036 µM | IC50 [18] 0.0227 µM | IC50 [19] 0.041 µM | IC50 [20] 0.0387 µM | IC50 [21] 0.0213 µM | IC50 [23] 0.705 µM | IC50 [24] 0.0178 µM
inactive: IC50 [16] > 10 µM | IC50 [22] > 10 µM
